Assay results from patent publication US9579319B2 (Redx Pharma PLC, priority 2013, dated 2017).

Test system: Hedgehog signalling pathway
Assay: Gli-reporter NIH3T3 luciferase assay (Hedgehog pathway inhibition)
Format: cell-based
Conditions: NIH3T3; Gli-reporter NIH-3T3 cells, recombinant mouse sonic hedgehog, 24 hours, luminescence; read-out: Category (Hedgehog pathway inhibition activity, IC50)
How it was run: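 Mouse NIH3T3 cells with Gli-responsive luciferase reporter, pre-treated 1 h with compound (top final concentration 1 μM, 0.1% DMSO) in 0.5% calf serum medium. Then stimulated with recombinant mouse sonic hedgehog for 24 h at 37° C. Luminescence read-out (OneGLO), triplicates; IC50 reported.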

| IC50 | Structure (SMILES) |
| --- | --- |
| < 10 nM | Cn1nccc1-c1nnc(N2CCC(NC(=O)Nc3ccc(C(F)(F)F)cc3)CC2)c2ccccc12 [Example 14, 1-[1-[4-(2-methylpyrazol-3-yl)phthalazin-1-yl]-4-piperidyl]-3-[4-(trifluoromethyl)phenyl]urea] |
| 10 to 200 nM | Cn1nccc1-c1nnc(N2CCC(NCc3ccc(F)cc3Cl)CC2)c2ccccc12 [Example 19, N-[(2-chloro-4-fluoro-phenyl)methyl]-1-[4-(2-methylpyrazol-3-yl)phthalazin-1-yl]piperidin-4-amine] |
| 10 to 200 nM | Cn1nccc1-c1nnc(N2CCC(NCc3ccccc3OC(F)(F)F)CC2)c2ccccc12 [Example 36, 1-[4-(2-methylpyrazol-3-yl)phthalazin-1-yl]-N-[[2-(trifluoromethoxy)phenyl]methyl]piperidin-4-amine] |
| 10 to 200 nM | Cn1nccc1-c1nnc(N2CCC(NCc3ccncc3C(F)(F)F)CC2)c2ccccc12 [Example 51, 1-[4-(2-methylpyrazol-3-yl)phthalazin-1-yl]-N-[[3-(trifluoromethyl)-4-pyridyl]methyl]piperidin-4-amine] |
| < 10 nM | Cn1nccc1-c1nnc(N2CCC(NC(=O)Nc3cccc(C#N)c3)CC2)c2ccccc12 [Example 22, 1-(3-cyanophenyl)-3-[1-[4-(2-methylpyrazol-3-yl)phthalazin-1-yl]-4-piperidyl]urea] |
| < 10 nM | Cn1nccc1-c1nnc(N2CCC(NC(=O)Nc3ccccc3F)CC2)c2ccccc12 [Example 46, 1-(2-fluorophenyl)-3-[1-[4-(2-methylpyrazol-3-yl)phthalazin-1-yl]-4-piperidyl]urea] |
| 200 to 2000 nM | Cn1nccc1-c1nnc(N2CCC(NCc3ccccc3)CC2)c2ccccc12 [Example 57, N-benzyl-1-[4-(2-methylpyrazol-3-yl)phthalazin-1-yl]piperidin-4-amine] |
| 10 to 200 nM | Cn1nccc1-c1nnc(N2CCC(NCc3cccc(OC(F)(F)F)c3)CC2)c2ccccc12 [Example 34, 1-[4-(2-methylpyrazol-3-yl)phthalazin-1-yl]-N-[[3-(trifluoromethoxy)phenyl]methyl]piperidin-4-amine] |
| < 10 nM | Cn1nccc1-c1nnc(N2CCC(NC(=O)NC3CCCCC3)CC2)c2ccccc12 [Example 11, 1-cyclohexyl-3-[1-[4-(2-methylpyrazol-3-yl)phthalazin-1-yl]-4-piperidyl]urea] |
| < 10 nM | Cn1nccc1-c1nnc(N2CCC(NC(=O)Nc3ccccc3OC(F)(F)F)CC2)c2ccccc12 [Example 25, 1-[1-[4-(2-methylpyrazol-3-yl)phthalazin-1-yl]-4-piperidyl]-3-[2-(trifluoromethoxy)phenyl]urea] |
| 10 to 200 nM | COc1ccc(NC(=O)NC2CCN(c3nnc(-c4ccnn4C)c4ccccc34)CC2)cc1 [Example 45, 1-(4-methoxyphenyl)-3-[1-[4-(2-methylpyrazol-3-yl)phthalazin-1-yl]-4-piperidyl]urea] |
| < 10 nM | Cn1nccc1-c1nnc(N2CCC(NC(=O)Nc3ccc(F)cc3C(F)(F)F)CC2)c2ccccc12 [Example 23, 1-[4-fluoro-2-(trifluoromethyl)phenyl]-3-[1-[4-(2-methylpyrazol-3-yl)phthalazin-1-yl]-4-piperidyl]urea] |

The remaining lines, values behind:

| Structure (SMILES) | IC50 |
| --- | --- |
| CN(Cc1ccc(F)cc1C(F)(F)F)C1CCN(c2nnc(-c3ccnn3C)c3ccncc23)CC1 [Example 47, N-[[4-fluoro-2-(trifluoromethyl)phenyl]methyl]-N-methyl-1-[1-(2-methylpyrazol-3-yl)pyrido[3,4-d]pyridazin-4-yl]piperidin-4-amine] | < 10 nM |
| CN(Cc1ccccc1F)C1CCN(c2nnc(-c3ccnn3C)c3ccccc23)CC1 [Example 64, (2-fluorophenyl)methyl-methyl-[1-[4-(2-methylpyrazol-3-yl)phthalazin-1-yl]-4-piperidyl]ammonium] | 10 to 200 nM |
| Cn1nccc1-c1nnc(N2CCC(NCc3ccc(OC(F)(F)F)cc3)CC2)c2ccccc12 [Example 20, 1-[4-(2-methylpyrazol-3-yl)phthalazin-1-yl]-N-[[4-(trifluoromethoxy)phenyl]methyl]piperidin-4-amine] | 10 to 200 nM |
| Cn1nccc1-c1nnc(N2CCC(NCc3ccc(F)cc3C(F)(F)F)CC2)c2cnccc12 [Example 49, N-[[4-fluoro-2-(trifluoromethyl)phenyl]methyl]-1-[1-(2-methylpyrazol-3-yl)pyrido[3,4-d]pyridazin-4-yl]piperidin-4-amine] | 10 to 200 nM |
| CN(Cc1ccc(F)cc1C(F)(F)F)C1CCN(c2nnc(-c3ccnn3C)c3ccccc23)C1 (centres unmarked) [Example 55, N-[[4-fluoro-2-(trifluoromethyl)phenyl]methyl]-N-methyl-1-[4-(2-methylpyrazol-3-yl)phthalazin-1-yl]pyrrolidin-3-amine] | 10 to 200 nM |

Same assay, conditions: NIH3T3; Gli-reporter NIH-3T3 cells, recombinant mouse sonic hedgehog, 24 hours, luminescence; read-out: Gli Luc nM (IC50)

| IC50 | Structure (SMILES) |
| --- | --- |
| 0.71 nM | Cn1nccc1-c1nnc(N2CCC(NC(=O)Nc3ccc(C(F)(F)F)cc3)CC2)c2ccccc12 [Example 14, 1-[1-[4-(2-methylpyrazol-3-yl)phthalazin-1-yl]-4-piperidyl]-3-[4-(trifluoromethyl)phenyl]urea] |
| 0.66 nM | Cn1nccc1-c1nnc(N2CCC(NC(=O)Nc3ccc(F)cc3C(F)(F)F)CC2)c2ccccc12 [Example 23, 1-[4-fluoro-2-(trifluoromethyl)phenyl]-3-[1-[4-(2-methylpyrazol-3-yl)phthalazin-1-yl]-4-piperidyl]urea] |

Same assay, conditions: NIH3T3; Gli-reporter NIH-3T3 cells, recombinant mouse sonic hedgehog, 24 hours, luminescence; read-out: Gli luc IC50

| IC50 | Structure (SMILES) |
| --- | --- |
| 10 to 200 nM | Cn1nccc1-c1nnc(N2CCC(NCc3cccc(F)c3F)CC2)c2ccccc12 [Example 163, N-[(2,3-difluorophenyl)methyl]-1-[4-(2-methylpyrazol-3-yl)phthalazin-1-yl]piperidin-4-amine] |
| 10 to 200 nM | Cn1nccc1-c1nnc(N2CCC(NCc3ccc(F)nc3C(F)(F)F)CC2)c2ccccc12 [Example 165, N-[[6-fluoro-2-(trifluoromethyl)-3-pyridyl]methyl]-1-[4-(2-methylpyrazol-3-yl)phthalazin-1-yl]piperidin-4-amine] |
| 10 to 200 nM | Cn1nccc1-c1nnc(N2CCC(NCc3ncccc3C(F)(F)F)CC2)c2ccccc12 [Example 150, 1-[4-(2-methylpyrazol-3-yl)phthalazin-1-yl]-N-[[3-(trifluoromethyl)-2-pyridyl]methyl]piperidin-4-amine] |
| 10 to 200 nM | CSc1nccc(CN(C)C2CCN(c3nnc(-c4ccnn4C)c4ccccc34)CC2)n1 [Example 92, N-methyl-1-[4-(2-methylpyrazol-3-yl)phthalazin-1-yl]-N-[(2-methylsulfanylpyrimidin-4-yl)methyl]piperidin-4-amine] |

Second part, the compound before the results:

| Structure (SMILES) | IC50 |
| --- | --- |
| CC(NC1CCN(c2nnc(-c3ccnn3C)c3ccccc23)CC1)c1ccc(F)cc1C(F)(F)F (centres unmarked) [Example 143, N-[1-[4-fluoro-2-(trifluoromethyl)phenyl]ethyl]-1-[4-(2-methylpyrazol-3-yl)phthalazin-1-yl]piperidin-4-amine] | 10 to 200 nM |
| Cc1c(-c2ccnn2C)nnc(N2CCC(N(C)Cc3ccncn3)CC2)c1C [Example 171, 1-[4,5-dimethyl-6-(2-methylpyrazol-3-yl)pyridazin-3-yl]-N-methyl-N-(pyrimidin-4-ylmethyl)piperidin-4-amine] | > 1000 nM |
| Cn1nccc1-c1nnc(N2CCC(N(Cc3ccc(F)cc3C(F)(F)F)C3CC3)CC2)c2ccccc12 [Example 94, N-cyclopropyl-N-[[4-fluoro-2-(trifluoromethyl)phenyl]methyl]-1-[4-(2-methylpyrazol-3-yl)phthalazin-1-yl]piperidin-4-amine] | > 200 nM |
| Cc1nc(C(F)(F)F)c(CN(C)C2CCN(c3nnc(-c4ccnn4C)c(C)c3C)CC2)s1 [Example 95, 1-[4,5-dimethyl-6-(2-methylpyrazol-3-yl)pyridazin-3-yl]-N-methyl-N-[[2-methyl-4-(trifluoromethyl)thiazol-5-yl]methyl]piperidin-4-amine] | 10 to 200 nM |
| CN(C1CCN(c2nnc(-c3ccnn3C)c3cccnc23)CC1)S(=O)(=O)c1ccc(F)cc1C(F)(F)F [Example 134, 4-fluoro-N-methyl-N-[1-[5-(2-methylpyrazol-3-yl)pyrido[2,3-d]pyridazin-8-yl]-4-piperidyl]-2-(trifluoromethyl)benzenesulfonamide] | 10 to 200 nM |
| CN(C(=O)Nc1ccc(F)cc1C(F)(F)F)C1CCN(c2nnc(-c3ccnn3C)c3c2CCC3)CC1 [Example 125, 3-[4-fluoro-2-(trifluoromethyl)phenyl]-1-methyl-1-[1-[1-(2-methylpyrazol-3-yl)-6,7-dihydro-5H-cyclopenta[d]pyridazin-4-yl]-4-piperidyl]urea] | < 10 nM |
| Cc1c(-c2ccnn2C)nnc(N2CCC(N(C)C(=O)Nc3cnncc3C(F)(F)F)CC2)c1C [Example 107, 1-[1-[4,5-dimethyl-6-(2-methylpyrazol-3-yl)pyridazin-3-yl]-4-piperidyl]-1-methyl-3-[5-(trifluoromethyl)pyridazin-4-yl]urea] | > 200 nM |
| O=C(Nc1ccc(F)cc1C(F)(F)F)NC1CCN(c2nnc(-c3ccncc3)c3ccncc23)CC1 [Example 99, 1-[4-fluoro-2-(trifluoromethyl)phenyl]-3-[1-[1-(4-pyridyl)pyrido[3,4-d]pyridazin-4-yl]-4-piperidyl]urea] | < 10 nM |
| CN(Cc1ncccc1C(F)(F)F)C1CCN(c2nnc(-c3ccnn3C)c3ccccc23)CC1 [Example 147, N-methyl-1-[4-(2-methylpyrazol-3-yl)phthalazin-1-yl]-N-[[3-(trifluoromethyl)-2-pyridyl]methyl]piperidin-4-amine] | 10 to 200 nM |
| CN(C(=O)Nc1ccc(F)cc1F)C1CCN(c2nnc(-c3ccnn3C)c3ccncc23)CC1 [Example 111, 3-(2,4-difluorophenyl)-1-methyl-1-[1-[1-(2-methylpyrazol-3-yl)pyrido[3,4-d]pyridazin-4-yl]-4-piperidyl]urea] | 10 to 200 nM |
| Cn1nccc1-c1nnc(N2CCC(Nc3ccc(F)cc3C(F)(F)F)CC2)c2c1CCC2 [Example 142, N-[4-fluoro-2-(trifluoromethyl)phenyl]-1-[1-(2-methylpyrazol-3-yl)-6,7-dihydro-5H-cyclopenta[d]pyridazin-4-yl]piperidin-4-amine] | 10 to 200 nM |
| COc1cc(-c2nnc(N3CCC(NS(=O)(=O)c4ccc(F)cc4C(F)(F)F)CC3)c(C)c2C)ccn1 [Example 172, 4-fluoro-N-[1-[6-(2-methoxy-4-pyridyl)-4,5-dimethyl-pyridazin-3-yl]-4-piperidyl]-2-(trifluoromethyl)benzenesulfonamide] | > 1000 nM |
